The values that follow come from patent US20150359798A1, “PIPERAZINYL DERIVATIVE REDUCES HIGH-FAT DIET-INDUCED ACCUMULATION OF FAT IN THE LIVERS, […]” (priority 2011, published 2015).

One experiment relates to HMG CoA reductase. The experiment can be described thus: HMG CoA reductase expression in liver of HFD mice (8 weeks). The format is in vivo. To be noted: KMUP-1 HCl 2.5, 5 mg/kg, simvastatin 5 mg/kg. On the procedure: In the 8 week experiment, C57BL/6J male mice (21-22 g), after fasting, were fed a HFD as a model of hyperlipidemia for 8 weeks. During the 2 month experiments, mice fasted for one night before the experiment was changed from a standard diet (STD) to a HFD and then the mice were randomly divided into 5 groups, including 2 control and 3 treatment groups. Six mice were used in each group. […]
The obtained protein extract was boiled to a ratio of 4:1 with a sample buffer (Tris 100 mM, pH 6.8, glycerol 20%, SDS 4% and bromophenol blue 0.2%). Electrophoresis was performed using 10% SDS-polyacrylamide gel (1 hour, 100 V, 40 mA, 20 μg protein per lane).
The blot was then incubated with anti-mouse or anti-goat IgG linked to alkaline phosphatase (1:1000) for 1 hour.

A further experiment relates to mice fed a HFD. The experiment in a line: HFD-fed mice, 14-week experiment: body weight, liver morphology, H&E, oil globulets. The class given is in vivo. On the procedure:
In the 14-week experiment, mice were fed a HFD from week 1 to week 14. During the 3 month experiments, KMUP-1 HCl (2.5 mg) was added to 200 ml tap water and) and drink for 14 weeks or for the last 6 weeks on mice or obese mice fed HFD, separately. 5 mice had free access to drinking water from week 1 to week 14 (protective group) or from week 8 to week 14 (treatment group). Tap water was used to normalize mineral nutrition (Scheme A).
The diameter of the white bar in the photograph was standardized at 100 μM for measuring the specific diameter of oil globulets in a whole liver slice, observed by microscope, with the aid of Powerpoint PC computer software (Microsoft®, USA) and printed out by a Hewlett-Packard® printer (USA). An increase in oil globulet diameter and cell number indicated increasing liver steatosis, i.e. steaotohepatitis. In contrast, decrease in diameter and the number of fat cells indicated the inhibition of steaotohepatitis. […] Hematoxylin-eosin (H&E) and […] staining of liver were used to assess oil globulet numbers under a microscope.
Mice liver and epididymal fat pads were cut and soaked in formalin, dehydrated through graded alcohols and embedded in paraffin. Specimens of liver tissues and epididymal fat pads fixed with formalin (4%) were embedded in paraffin for one hour at 4° C., cut into […] sections, and subjected to H&E staining before examination by light microscope. In heart tissues, the 4-μm-thick paraffin sections were cut from paraffin-embedded tissue blocks and de-paraffinized by immersion in xylene and rehydrated. The slices were then dyed with H&E. After gently rinsing with water, each slide was dehydrated through graded alcohols and finally soaked in xylene twice.
Hematoxylin-eosin (H&E) and IHC staining of liver were used to assess oil globulet numbers under a microscope. A 100 μM white bar was used to determine oil globule sizes in the liver. Oil globulets in a cell were counted from larger to smaller until size limitations were reached. Increases of oil globulet diameter and number indicated increasing liver steatosis. In contrast, a decrease in oil globulet diameters and numbers could indicate the inhibition of liver steatosis. Oil globulets were measured using a Nikon Eclipse TE200-S microscope, aided by Powerpoint computer software (Microsoft®) and printed by a HP® printer to measure the diameter and number of oil globulets on paper. Counting: of oil globules was performed from larger to smaller ones until the observation reached its limit.

In the next experiment the test system is LDLRs. The experiment in a line: IHC staining of LDLRs in liver. To be noted: drinking KMUP-1 HCl; HFD; protection and treatment groups. The class given is in vivo, mice. On the procedure:
Liver tissues were fixed in 10% buffered formalin for 24 hours and then embedded in paraffin. The paraffin-embedded liver tissue sections (4 μm thick) were first heat immobilised and deparaffinised using xylene and then rehydrated in a graded series of ethanol, followed by a final wash in distilled water. Finally, tissue sections were stained with PAS and Mayer's hematoxylin solution.
For IHC of hepatic LDLRs in the animals that drink the KMUP-1 HCl (2.5 mg/200 mL for 1-14 weeks or 8-14 weeks), antigen retrieval of de-paraffinated sections was performed in Dako target retrieval solution, pH 9.0, in a vegetable steamer followed by the quenching of endogenous peroxidase activity with 3.0% H2O2 in methanol. Sections were then incubated with specific primary antibodies overnight at 4° C. in a humidified chamber. The sections were then examined using a DAKO REAL EnVision™ Detection System kit (DAKO, Carpinteria, Calif., U.S.A.) and counterstained with hematoxylin. Images were obtained through a Nikon Eclipse TE200-S microscope.

A further experiment relates to mice fed with HFD. The experiment can be described thus: HFD-fed mice, 8 weeks, gavage: serum/liver lipids, body weight, food intake. The class given is in vivo. To be noted: for HDL chol. / LDL chol. / TG / Tot. chol.: Table 2, mice. On the procedure: In the 8 week experiment, C57BL/6J male mice (21-22 g), after fasting, were fed a HFD as a model of hyperlipidemia for 8 weeks. During the 2 month experiments, mice fasted for one night before the experiment was changed from a standard diet (STD) to a HFD and then the mice were randomly divided into 5 groups, including 2 control and 3 treatment groups. Six mice were used in each group. […] Liver from the protection group supplemented with KMUP-1 HCl (1 mg/kg/day) were used to determine the HMG CoA reductase expression.
Within 2 months, the 3 day food intake average for each animal was measured. The weight gain and plasma lipid levels of each group were determined and compared to the non-treatment control group. Mouse blood was collected during the daytime by cardiac puncture followed by centrifugation at 90 g (Benchtop Centrifuge, U.S.A.) to separate the serum, and frozen at −80° C., for biochemical analysis using a Hitachi Clinical Analyzer 7070 (Hitachi High-Technologies Co. Tokyo, Japan). Agents used in the assays were Obtained from Merck & Co. (Kenilworth, N.J., U.S.A.). Triglyceride (TG), total cholesterol, HDL cholesterol and LDL cholesterol in mouse serum were measured by methods used in the clinic. To measure the hepatic TG, isolated liver were cut into small chips.

A further experiment concerns ROCKII. The experiment can be described thus: Table 4 ROCKII (% of control). The class given is cell-based. Conditions: control group = 100 (%).
The subject of a further experiment is PDE-5A. The experiment can be described thus: Table 4 PDE-5A (% of control). The class given is cell-based. To be noted: control group = 100 (%).
The next experiment deals with eNOS. The experiment can be described thus: Table 4 eNOS (% of control). The class given is cell-based. To be noted: control group = 100 (%).

Consider `Cl.Cn1c(=O)c2c(ncn2CCN2CCN(c3ccccc3Cl)CC2)n(C)c1=O` [KMUP-1 HCl, 7-[2-[4-(2-chlorophenyl)piperazinyl]ethyl]-1,3-dimethylxanthine HCl complex], for which, in the experiment on HMG CoA reductase, the “HFD-induced downregulation of HMG-CoA reductase expression in liver” value was “significantly reversed”. Moreover, the body weight entry with mice fed a HFD (drinking 2.5 mg/200 ml water, protection and treatment groups) was “decreased”. Besides, the “fatty liver (gross morphology)” value with mice fed a HFD (protective group, more prominent than in the treatment group) is recorded as “markedly decreased”. Besides, in the experiment on LDLRs, the “hepatic LDLRs (IHC)” value is reported as “increased”. Also, the body-weight gain result with mice fed with HFD (KMUP-1 HCl 2.5, 5 mg/kg p.o., simvastatin 5 mg/kg p.o., compared to control HFD group, p<0.05) is given as “reduced”. Moreover, in the experiment on mice fed with HFD (dose 2.5 mg/kg), the HDL chol. stood at 103.6 ± 4.2 mg/dL, the LDL chol. was 14.2 ± 1.4 mg/dL, the TG is 74.5 ± 5.1 mg/dL and the Tot. chol. worked out at 133 ± 5.1 mg/dL. Further, in the experiment on mice fed with HFD (dose 5 mg/kg), the HDL chol. worked out at 118.3 ± 5.7 mg/dL, the LDL chol. amounted to 14.2 ± 2.2 mg/dL, the TG was determined as 72.67 ± 4.7 mg/dL and the Tot. chol. was determined as 125.5 ± 9.8 mg/dL. Also, the ROCKII in the experiment on ROCKII came to 42.5 ± 6.3%. Further, the PDE-5A with PDE-5A is 64.5 ± 4.5%. The same compound came in with an eNOS with eNOS of 155.16 ± 14.8%.
